Data reported in PubChem BioAssay (NCI).
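Grown in 96-well plates, cells were treated for 48 hours with each compound at five concentrations. Insufficient inhibition: endpoint recorded as highest concentration tested. GI50 marks 50% less growth. TGI is the concentration that stops growth completely.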

Key:
Assay in all cases: growth of human tumour cells (NCI), 48 h
HL-60(TB) leukemia = tested on: HL-60(TB) leukemia
SF-268 CNS = tested on: SF-268 CNS
NCI/ADR-RES ovarian = tested on: NCI/ADR-RES ovarian
A498 renal = tested on: A498 renal
SK-MEL-2 melanoma = tested on: SK-MEL-2 melanoma
HT29 colon = tested on: HT29 colon
MOLT-4 leukemia = tested on: MOLT-4 leukemia
A549 NSCLC = tested on: A549 NSCLC
HCC-2998 colon = tested on: HCC-2998 colon
DU-145 prostate = tested on: DU-145 prostate

Row | SMILES | TGI (HL-60(TB) leukemia) [µM] | TGI (SF-268 CNS) [µM] | TGI (NCI/ADR-RES ovarian) [µM] | TGI (A498 renal) [µM] | TGI (SK-MEL-2 melanoma) [µM] | TGI (HT29 colon) [µM] | TGI (MOLT-4 leukemia) [µM] | TGI (A549 NSCLC) [µM] | TGI (HCC-2998 colon) [µM] | TGI (DU-145 prostate) [µM] | GI50 (SF-268 CNS) [µM] | GI50 (A498 renal) [µM] | GI50 (MOLT-4 leukemia) [nM] | GI50 (A549 NSCLC) [µM]
1 | Nc1cc2ncnc(Nc3cccc(Br)c3)c2cn1 | > 100 | > 100 | > 100 | 36.1 | 69.7 | > 100 | > 100 | > 100 | – | – | – | – | – | –
2 | COc1ccc(C2C3=CONC3CC3CCCCC32)cc1 (centres undefined) | > 100 | > 100 | – | – | > 100 | > 100 | > 100 | > 100 | 47.3 | – | – | – | – | –
3 | CCCCN(CCCC)C1=Nc2ccccc2-n2c(nnc2C(=O)OCC)C1 | 40.9 | > 100 | > 100 | – | – | > 100 | 84.1 | > 100 | > 100 | > 100 | – | – | – | –
4 | COc1ccc(OC)c(-c2cn3c(n2)sc2ccccc23)c1 | > 100 | > 100 | > 100 | – | > 100 | > 100 | > 100 | > 100 | – | > 100 | – | – | – | –
5 | C=C1C(=O)O[C@H]2[C@H]1CC/C(COC(=O)/C=C/C(=O)OC/C1=C/CC[C@@]3(C)O[C@H]3[C@H]3OC(=O)C(=C)[C@@H]3CC1)=C\CC[C@@]1(C)O[C@@H]21 | – | > 100 | – | > 100 | – | – | 1.4 | > 100 | – | – | 3.19 | > 100 | 307 | > 100
6 | O=C1/C(=C/C=C/c2ccccc2)CCC1CNc1ccc(Br)cc1 (centres undefined) | > 100 | > 100 | – | > 100 | – | > 100 | > 100 | > 100 | > 100 | > 100 | – | – | – | –
7 | Cc1ccc(Cl)c2c(=O)cc(-c3ccccc3)[nH]c12 | > 100 | > 100 | – | – | > 100 | > 100 | > 100 | > 100 | – | – | – | – | – | –
8 | CCCCCCCCCCC[N+]1(Cc2ccccc2)CC2CCN(Cc3ccccc3)CC2C1 (centres undefined) | 0.277 | 2.13 | – | 2.88 | 0.724 | 1.71 | 1.25 | 2.43 | 2 | 1.51 | – | – | – | –
9 | OCC1c2ccccc2-n2nc(-c3ccccc3)c(O)c21 (centres undefined) | – | > 100 | 51.1 | – | 43.9 | 76.4 | > 100 | > 100 | 44.8 | > 100 | – | – | – | –
10 | COC(C/C=C\C=C\CC/C=C/CC(C)/C=C/C(=C\C(=O)O)CC(=O)O)/C(C)=C\C=C(/C)C(=O)O (centres undefined) | – | > 100 | – | > 100 | > 100 | > 100 | > 100 | > 100 | > 100 | > 100 | – | – | – | –
11 | O=C(NCCNCCO)N/N=C/c1ccccc1 | > 100 | > 100 | – | – | > 100 | > 100 | > 100 | > 100 | – | – | – | – | – | –
